Data as given in paper PMC7990224 (PLoS Pathogens, 2021).
“And” between values parts separate entries of the source, which are not always exact repeats. Equal values may be shown once.

Tested on: SARS-CoV-2 GFP/ΔN trVLP
Type: cell-based

Compound | IC50
GC376 | 4.5 µM
CCC(CC)COC(=O)[C@H](C)N[P@](=O)(OC[C@H]1O[C@@](C#N)(c2ccc3c(N)ncnn23)[C@H](O)[C@@H]1O)Oc1ccccc1 [Remdesivir] | 0.0625 µM
Cc1cccc(C)c1OCC(=O)N[C@@H](Cc1ccccc1)[C@@H](O)C[C@H](Cc1ccccc1)NC(=O)[C@H](C(C)C)N1CCCNC1=O [Lopinavir] | 8.7 µM and 8.75 µM
CC(C)c1nc(CN(C)C(=O)N[C@H](C(=O)N[C@@H](Cc2ccccc2)C[C@H](O)[C@H](Cc2ccccc2)NC(=O)OCc2cncs2)C(C)C)cs1 [Ritonavir] | 7.54 µM
